Square brackets hold non-standard residues; d marks the D form. Peptide text beside a SMILES is read from it. * marks the point of attachment. Boc = CC(C)(C)OC(=O)*
Key:
cuticle bleeding time = assay: Cuticle Bleeding Time model in rabbits; type: in vivo, rabbit; conditions: 1500 μg/kg+14.85 μg/kg/min
Procedure: In an ancillary study, a Cuticle Bleeding Time model was used to evaluate the effect of test compounds on bleeding time (BT) measurements in rabbits. The standardized protocol involved anesthesia and catheterization of rabbits as previously described in this Example 43. To measure BT, a toe nail was cut 5 mm from the base of the cuticle with a canine nail trimming device. Time until cessation of bleeding was recorded by wicking the blood on to BT blotting paper in 30 second intervals. Test compound was administered as a bolus followed by infusion regimen. Two BT measurements were obtained prior to administration of test compound and three BT measurements accomplished serially after initiation of steady state infusion of test compound. BT measurements were allowed to continue for up to 30 minutes at which time it was stopped with application of silver nitrate. Blood samples were obtained just prior to all BT measurements and processed for measurement of hematological and coagulation parameters.

[1] = rabbit, in vivo, iv, 2 mg/kg
[2] = test system: coagulation parameters (aPTT, PT, FIB)
rabbit venous thrombosis [3] = conditions: in vivo
in vivo = conditions: rabbit, iv
rabbit venous thrombosis [4] = assay: Rabbit deep vein thrombosis model; conditions: bolus + infusion, doses 200 + 1.98 to 1500 + 14.85 μg/kg + μg/kg/min

SMILES	changes in hematological parameters from pre to post administration (cuticle bleeding time; cuticle BT experiments)	increase of cuticle BT from pre-administration baseline (cuticle bleeding time; rabbits, n=4, ±1.26) [fold]	peak plasma concentration by HPLC [1] [µg/mL]	changes in hematological parameters as compared to saline controls ([2]; rabbit, in vivo, iv, 2 mg/kg)	effects on hematological parameters as compared to saline controls (rabbit venous thrombosis [3])	half-life (in vivo) [min]	Vd (in vivo; 2 mg/kg) [L/kg]	FIB prolongation ([2]; rabbits, I.V. bolus 2.0 mg/kg) [fold]	PT prolongation ([2]; rabbits, I.V. bolus 2.0 mg/kg) [fold]	aPTT prolongation as compared to pretreatment values ([2]; rabbits, I.V. bolus 2.0 mg/kg) [fold]	anticoagulative effect ([2]; rabbits, I.V. bolus 2.0 mg/kg)	antithrombotic efficacy in the rabbit venous thrombosis model (rabbit venous thrombosis [4])
CC(C)(C)OC(=O)N[C@H](CCCN=C(N)N)C(=O)NCC(=O)N[C@H](C=O)CCCN=C(N)N [Boc--D-Arg--Gly--Arg--H, Boc-D-Arg-Gly-Arg-H] (Boc-[dR]-Gly-Arg-aldehyde)	no significant changes	2.14	3.78	no significant changes	no significant effects	70.6	0.118	–	–	–	–	–
CC(C)(C)OC(=O)N[C@H](CCCNC(=N)N)C(=O)NCC(=O)N[C@H](C=O)CCCNC(=N)N [Boc--D-Arg--Gly--Arg--H, Boc-D-Arg-Gly-Arg-H] (Boc-[dR]-Gly-Arg-aldehyde)	–	–	–	–	–	–	–	1.07	1.15	2.45	plasma concentration-dependent anticoagulative effect	antithrombotic efficacy at the higher doses evaluated

Reference: US6046169A, “Inhibitors of factor XA” (COR Therapeutics, Inc., priority 1995, dated 2000)
